Laboratory results published in patent US20100063049A1, “2-CARBOCYCLOAMINO-4-IMIDAZOLYLPYRIMIDINES AS AGENTS FOR THE INHBITION OF CELL PROLIFERATION” (priority 2006, published 2010).

Target: T1, CDK2/Cyclin E (Homo sapiens, UniProt P24941)
T1 construct: The open reading frames of CDK2 and Cyclin E were isolated by reverse transcriptase-PCR; made in house; host or cells: Spodoptera frugiperda SF21 insect cells (baculovirus co-infection); GST-Rb substrate made in E. coli BL21(DE3) pLysS
Assay: in vitro kinase assay (Scintillation Proximity Assay), incorporation of [γ-33-P]-ATP into GST-Rb
Assay type: biochemical
Conditions: CDK2/Cyclin E partially-purified enzyme, GST-Rb substrate, 0.2 μM ATP, room temperature 60 mins; read-out: CDK2 inhibitory activity IC50
Method: The compounds were tested in an in vitro kinase assay in 96 well format using Scintillation Proximity Assay (SPA—obtained from Amersham) for measuring incorporation of [γ-33-P]-Adenosine Triphosphate into a test substrate (GST-Retinoblastoma protein; GST-Rb). In each well was placed the compound to be tested (diluted in DMSO and water to correct concentrations) and in control wells either roscovitine as an inhibitor control or DMSO as a positive control. […]
The plates were sealed with Topseal-S plate sealers, left for two hrs then spun at 2500 rpm, 1124×g., for 5 mins. The plates were read on a Topcount for 30 seconds per well. […]
E. coli paste was resuspended in 10 ml/g of NETN buffer (50 mM Tris pH 7.5, 120 mM NaCl, 1 mM EDTA, 0.5% v/v NP-40, 1 mM PMSF, 1 ug/ml leupeptin, 1 ug/ml aprotinin and 1 ug/ml pepstatin) and sonicated for 2×45 seconds per 100 ml homogenate. […] The final product was analysed by Sodium Dodeca Sulfate (SDS) PAGE (Polyacrylamide gel) using 8-16% Tris-Glycine gels (Novex, San Diego, USA).
The open reading frames of CDK2 and Cyclin E were isolated by reverse transcriptase-PCR using HeLa cell and activated T cell mRNA as a template and cloned into the insect expression vector pVL1393 (obtained from Invitrogen 1995 catalogue number: V1392-20). […]

IC50: 159 nM
SMILES: Cc1ncc(-c2ccnc(N[C@H]3CC[C@H](N(C)C)CC3)n2)n1C(C)C [Example 4, trans-N′,N′-Dimethyl-N-[4-(2-methyl-3-propan-2-yl-imidazol-4-yl)pyrimidin-2-yl]cyclohexane-1,4-diamine]
